Laboratory results reported in patent publication US4315018A, “Specific parasiticidal use of 2-benzamido-5-nitro-thiazole derivatives” (priority 1978, dated 1982).
Entries after “also recorded” stand apart in the source; their conditions may differ.

Columns and labels:
Taenia pisiformis = assay: Treatment of Taenia pisiformis in dogs (experimental infection, single oral dose); type: in vivo, dogs (beagles)
Experimental: Fifteen beagles (8 male and 7 female), ranging in age from 8 to 30 months, were individually housed in stainless-steel cages and fed with commercial dog food. Water was provided ad libitum. After 2 weeks acclimatization, each dog was exposed to infection by administering orally 14-20 cysts containing Taenia pisiformis strobilocerci obtained 24 hours before from wild rabbits. Vitality of the cysts was verified by evagination in bile of the dog.
Seven dogs (Group 1) were given the drug 6 weeks after infection with Taenia pisiformis, and the other 8 dogs (Group 2) were given the drug 8 weeks after infection.
(§1) Food and water intake, faecel consistency, vomiting, general appearance and behavior were recorded hourly during the day of treatment and twice daily thereafter.
The tapeworms that were found were then removed, counted and examined for scolices.
The emission time of the faeces for each dog was recorded during the day, when possible.
Nineteen days after treatment for Group 1, and 4 days after treatment for Group 2, the dogs were killed and the small intestines were examined in order to reveal the presence of Taenia spp. This 19-day waiting period for Group 1 allowed time for any viable scolices to redevelop, thus making them more easily visible at necropsy.
The intestines and intestinal contents from the pyloric portion of the stomach through the rectum were thoroughly examined for parasites.

Dypilidium caninum = assay: Treatment of Dypilidium caninum in dogs (natural infection); type: in vivo; conditions: 100 mg/kg, tablets containing 0.5 gram, necropsy 21 days after treatment
From the text: In general, the testing procedure was substantially the same as in Example 1 except necropsy 21 days after treatment. The treatment was 100% effective.

Echinococus granulosus = assay: Treatment of Echinococus granulosus in dogs (experimental infection); type: in vivo; conditions: 200 mg/kg, 0.5 gram tablets, treated 4 or 6 weeks after infection, necropsy 4 days after treatment
Experimental: Again, the general testing procedure was that of Example 1. This time 16 dogs to be treated were experimentally infected and divided into two groups along with 4 infected control dogs in each group. The 8 dogs of Group 1 were treated 4 weeks after infection, and the 8 dogs of Group 2 were treated 6 weeks after infection, each at a dose of 200 mg/kg, using the 0.5 gram active ingredient tablets. 100% efficacy of the single dose treatment was found upon necropsy 4 days after treatment.

Moniezia spp. = assay: Treatment of Moniezia expansa in lambs (natural infestation); type: in vivo
Experimental: (§2) Twenty lambs spontaneously infested by nematodes and cestodes were removed from a flock near Limoges (Haute-Vienne), France. They were housed in sheepfold --concentrate food, 1 kg per day per lamb, water and hay, ad libitum, were provided.
(§3) The animals were assigned to treatment groups as indicated below:
(§4) Seven lambs (Group 1, black) were given a single 100 mg/kg of body weight dose of the test material dissolved in a mixture of water and gum syrup (0.5 ml/kg of body weight) orally administered with a syringe.
(§5) Seven lambs (Group 2, red) were given a single 50 mg/kg of body weight dose of the test material dissolved in a mixture of water and gum syrup (0.5 ml/kg of body weight) orally administered with a syringe.
(§6) Six lambs (Group 3, blue) were given 0.5 ml/kg of body weight of a mixture of water and gum syrup orally administered with a syringe.
(§7) 48 hours after treatment, necroscopies were performed.
(§8) Scolices and gastro intestinal worm counts were carried out.

[1] = test system: Gastro-Intestinal Nematodes; assay: Gastro-intestinal nematodes in lambs, worm counts; type: in vivo
Experimental: as §2
To confirm the infestation, faeces were taken from the rectum 48 hours prior to treatment and the number of eggs counted.
as §3, §4, §5, §6, §7, §8

whipworms = assay: Treatment of nematodes in dogs: whipworms; type: in vivo; conditions: 100 mg/kg single dose, tablets containing 0.5 g, 3 dogs, necropsy 4 days after treatment
From the text: (§9) The general testing procedure was that of Example 1. […] 100% efficacy against whipworms and 65% efficacy against hookworms were found upon necropsy 4 days after treatment using a single dose treatment.

hookworms = assay: Treatment of nematodes in dogs: hookworms; type: in vivo
From the text: as §9

[2] = Toxicity study in cats, single doses; type: in vivo
From the text: (§10) Additional toxicity studies have been carried out in cats and dogs, which can be summarized as follows.
The lethal dose of the test material in cats is greater than 10 g/kg.

[3] = Toxicity study in dogs, single doses; type: in vivo
From the text: as §10
The lethal dose of the test material in dogs is greater than 10 g/kg.

[4] = Side effects of treatment in Taenia pisiformis-infected dogs; type: in vivo, dogs (beagles); conditions: 75 mg/kg, 15 dogs
Experimental: as §1

[5] = Necropsy observations in treated lambs; type: in vivo; conditions: 48 hours after treatment
Experimental: as §4, §5, §7

[6] = single dose 100 mg/kg, 7 naturally infested lambs

## CC(=O)Oc1ccccc1C(=O)Nc1ncc([N+](=O)[O-])s1 [PH 5776, 2-(2'-acetoxy)-benzamido-5-nitro-thiazole]
Taenia pisiformis; 75 mg of body weight
  Effectiveness against Taenia pisiformis: effective
Taenia pisiformis; 75 mg/kg
  Tapeworm material in faeces after the 14th hour: not found
Taenia pisiformis; 75 mg/kg, 15 dogs, day 19 (Group 1) and day 4 (Group 2)
  Tapeworms at necropsy (in words): tapeworms were not found in any of the 15 dogs; also recorded: None of the dogs on study were positive for tapeworms
Taenia pisiformis; Group 1 (7 dogs), 75 mg/kg
  Number of dogs showing tapeworm material in the faeces: 5 dogs
Taenia pisiformis; Group 1, 75 mg/kg, 6 weeks after infection
  Tapeworm Material In Faeces (8th-14th Hour): yes and no
Taenia pisiformis; Group 2 (8 dogs), 75 mg/kg
  Number of dogs showing tapeworm material in the faeces: 6 dogs
Taenia pisiformis; Group 2, 75 mg/kg, 8 weeks after infection
  Tapeworm Material In Faeces (8th-14th Hour): yes and no
Taenia pisiformis; Groups 1 and 2, out of 15 dogs, 75 mg/kg
  Number of dogs showing tapeworm material in the faeces: 11 dogs
Dypilidium caninum
  Effectiveness of treatment: 100%
Echinococus granulosus
  Efficacy of the single dose treatment: 100%
Moniezia spp.; 50 mg/kg
  Efficacy against Moniezia spp. (in words): the efficacy is decreasing
  Number of lambs negative after treatment: 3 lambs
Moniezia spp.; Group 2 (red), 50 mg/kg, 48 hours after treatment
  Number of lambs still infested with the cestoda: 3 lambs
Moniezia spp.; [6]
  Activity against Moniezia spp.: ~100%
  Activity against Moniezia spp. (in words): very active
[1]; Group 1, 100 mg/kg
  After Treatment At Necroscopies: Number Of Worms, Large Intestine: 0
[1]; lambs, 48 hours after treatment, 50 and 100 mg/kg
  Effect on round worms / gastro-intestinal nematodes (in words): no toxic effect on any of the present round worms; also recorded: does not reveal any efficacy; also recorded: no activity
whipworms
  Efficacy against whipworms: 100%
hookworms; 100 mg/kg single dose, tablets containing 0.5 g, 3 dogs, necropsy 4 days after treatment
  Efficacy against hookworms: 65%
hookworms; 3 repeated doses of 100 mg/kg at an interval of 7 days
  Efficacy against hookworms: 93%
[2]
  Lethal dose: greater than 10 g/kg
  Necropsy findings: slight yellow discoloration of the renal cortex
[2]; doses of 5 and 10 g/kg
  Signs of intoxication (central nervous system): a suggestion of central nervous system depression
[2]; single doses of 1 g/kg
  Signs of intoxication: Minimal signs (slight diarrhea) of intoxication
[2]; suggested from necropsy findings
  Route of excretion: urine as a route of excretion
[3]
  Lethal dose: greater than 10 g/kg
[3]; single doses of 1, 5 or 10 g/kg
  Signs of intoxication: Minimal signs of intoxication related to gastro-intestinal distress
[4]
  Undesirable side effects of the treatment: not found in any of the 15 dogs
[5]; 100 or 50 mg/kg
  Changes in the internal organs and coloration of the tissues: No changes in the internal organs and no coloration of the tissues were observed
[5]; treated groups (100 or 50 mg/kg)
  Coloration of small intestine wall tissues: slightly colored yellow
